Source: paper PMC6291738, “Identification of novel HIV-1-derived HLA-E-binding peptides” (Immunology Letters, 2018)
“And” between values parts separate entries of the source, which are not always exact repeats. Equal entries are not always repeated. No end group written: not given here.

Experiments:
HLA-E*01:01 [1] = molecular target: T1, HLA-E*01:01 (Homo sapiens, UniProt P13747, G128R); assay: HLA-E/peptide cell-surface stabilization (binding) assay, RMA-S cells transfected with HLA-E*01:01; type: cell-based; design: RMA-S cells expressing HLA-E*01:01 and E*01:03 were generated by transfecting the genes into the RMA-S cell line; expressed in transfected cells; host or cells: murine TAP-deficient RMA-S cells; details: RMA-S cells with HLA-E*01:01 and human β2-microglobulin; overnight 26 °C, peptide 1 h 26 °C, 3 h 37 °C; peptide 100 μg/ml; Index = (Sample 37 °C – No peptide 37 °C)/(Sample 26 °C – No peptide 26 °C); flow cytometry
Protocol: (§1) Binding of PM9 to both HLA-E*01:01 and –E*01:03 alleles was assessed using an HLA-E/peptide cell-surface stabilization assays. Thus, murine RMA-S cells deficient in transporter associated with antigen processing (TAP) were stably transfected with one of the two HLA-E alleles together with human β2-microglobuline. Then, stabilization of HLA-E/PM9 and HLA-E/VL9 complexes was compared in peptide-titration analyses using peptide concentrations ranging from 0.01 μg/ml to 100 μg/ml by growing transfected RMA-S cells overnight at 26 °C, pulsing them with peptide for 1 h and transferring them to 37 °C for 3 additional hours. Weak half-maximal effective concentrations (EC50) of over 100 μM were indicated for the interaction of PM9 with the two HLA-E*01:01 and E*01:03 molecules (Fig. 1A).

HLA-E*01:03 [2] = molecular target: T2, HLA-E*01:03 (Homo sapiens, UniProt P13747); assay: HLA-E/peptide cell-surface stabilization (binding) assay, RMA-S cells transfected with HLA-E*01:03; type: cell-based; design: RMA-S cells expressing HLA-E*01:01 and E*01:03 were generated by transfecting the genes into the RMA-S cell line; expressed in transfected cells; host or cells: murine TAP-deficient RMA-S cells; details: for Cell-Surface Stabilization Index E*01:03 ± SD: RMA-S cells with HLA-E*01:03 and human β2-microglobulin, overnight 26 °C, peptide 1 h 26 °C, 3 h 37 °C, peptide 100 μg/ml, Index = (Sample 37 °C – No peptide 37 °C)/(Sample 26 °C – No peptide 26 °C), mean ± SD n=3
Protocol: as §1

Mamu-E*02:04 = assay: Single-chain peptide-β2-microglobulin-MHC-E trimer stabilization assay, HEK 293T cells, Mamu-E*02:04; type: cell-based, rhesus macaque (Macaca mulatta); details: transiently transfected HEK 293T cells; mAb 4D12
Description: (§2) The chimeric genes coding for the single-chain peptide-β2-microblobuline-MHC-E trimers were constructed as described previously. Briefly, the DNA fragment coding the tested peptide was inserted downstream of the fragment coding for the signal sequence of HLA-E*01:01 followed by coding sequences for a flexible linker [G4S]4, β2-microglobulin and the desired heavy chain of MHC-E. […] to accommodate for the flexible linker. The assembled plasmids were then transfected into HEK 293 T cells maintained between 10% and 90% confluency at 37 °C, 5% CO2 in DMEM (Life Technologies) supplemented with 10% FBS (SeraLabs), and 50 units/ml Penicillin/50 μg/ml Streptomycin (Life Technologies). Transfections were carried out in 6-well plates using GeneJuice (Millipore) as per the manufacturer’s instructions.
(§3) To further confirm PM9-interaction with the MHC-E molecules, we employed an assay based on cell-surface stabilization of single-chain peptide-β2-microblobuline-MHC-E trimers. Briefly, a DNA fragment coding for the tested peptide, here PM9, was inserted downstream of an HLA-E leader peptide and was followed by flexible [G4S]4 linker, β2-microblobuline and Y84 A point-mutated MHC-E heavy chain, which accommodated the flexible linker (Fig. 1B left). […]

CD8+ HC092 STCL cells = type: cell-based, human; details: PM9-pulsed LCL721.221 HLA-B*18:01 transfectant; volunteer 410
Protocol: Cryopreserved PBMCs were thawed and cultures set up at 1–3 × 10^6 cells/ml in culture medium containing 1.5 μg/ml 15-mer ‘parental’ peptide and 25 ng/ml IL-7 (R & D Systems). Cultures were supplemented with 100 IU/ml IL-2 (R&D Systems) on day 3, and IL-2 plus fresh culture medium on day 7. On day 10, the cells were washed three times with culture medium, re-suspended in 1 ml of medium and placed at 37 °C, 5% CO2 for 48 h to rest prior to the ICS assay.
LCL 721.221 cell lines expressing a single HLA allele were prepulsed with corresponding peptides, added to the STCLs in a 96-well plate at 37 °C for 2 h. […]
The first-generation candidate T-cell vaccine against HIV-1 employing conserved regions of the HIV-1 proteome was tested in HIV-1-negative adults in trial HIV−CORE 002 and induced robust HIV-1-specific T-cell responses. These responses were detected by pools of 15-mer peptides overlapping by 11 amino acids across the full length of the HIV-1-derived vaccine immunogen. […] In particular, HLA restriction was determined by expanding volunteer’s PBMC with stimulatory ‘parental’ peptide […] […]

[3] = tested on: CD8+ T cells of HIV-1-infected patients; assay: Search for PM9-specific HLA-E-restricted CD8+ T-cell responses in natural HIV-1 infection; type: cell-based, human; details: PBMC of 32 treatment-naïve patients chronically infected with HIV-1; barely detectable response
Description: Cryopreserved PBMCs from 32 treatment-naïve Japanese individuals chronically infected with HIV-1 subtype B were recruited from the National Center for Global Health and Medicine. All volunteers gave written informed consent before participation. The study was approved by the ethics committees of Kumamoto University and the National Center for Global Health and Medicine. Informed consent was obtained from all individuals according to the Declaration of Helsinki. Plasma and PBMCs were separated from whole blood. HLA types of the individuals were determined by standard sequence-based genotyping.
So far, we were unable to confirm existence of vaccine- or natural HIV-1 infection-elicited CD8^+ T lymphocytes recognizing HIV-1-derived peptides through their TCR and this is not for lack of trying. […] Since humans infected with M. tuberculosis have readily detectable CD8^+ T cells specific for HLA-E-presented M. tuberculosis peptides, perhaps search for such HLA-E-restricted HIV-1-specific CD8 T cells in dually HIV-1- and M. tuberculosis co-infected individuals might yield some interesting results.

HLA-E*01:03 [4] = molecular target: T2, HLA-E*01:03; assay: Single-chain peptide-β2-microglobulin-MHC-E trimer stabilization assay, HEK 293T cells, HLA-E*01:03; type: cell-based; design: expressed in transfected cells; details: transiently transfected HEK 293T cells; for HLA-E*01:03 single-chain trimer surface stabilization: mAb 3D12, compared with VL9 and irrelevant peptide
Description: as §2
To further confirm PM9-interaction with the MHC-E molecules, we employed an assay based on cell-surface stabilization of single-chain peptide-β2-microblobuline-MHC-E trimers. Briefly, a DNA fragment coding for the tested peptide, here PM9, was inserted downstream of an HLA-E leader peptide and was followed by flexible [G4S]4 linker, β2-microblobuline and Y84 A point-mutated MHC-E heavy chain, which accommodated the flexible linker (Fig. 1B left). […] From these experiments, we concluded that the PM9 peptide bound to HLA-E molecules, and stabilized and increased the HLA-E expression on the cell surface.
Fig. 2 Identification of HLA-E-binding peptides in a single-chain trimer stabilization assay. A single chain peptide-β2-microglobuline-MHC-E heavy chain trimer stabilization assay was employed to determine the candidate 9-mer peptide binding to HLA-E*01:03 (brown line) and compared to that induced by VL9 (yellow area) and irrelevant (pink area) peptide. Expression of trimer on transiently transfected into HEK 293T cells was assessed using a […] 3D12 mAb in flow cytometry. Please see gating strategy in Fig. S3.

HLA-E*01:01 [5] = molecular target: T1, HLA-E*01:01; assay: Single-chain peptide-β2-microglobulin-MHC-E trimer stabilization assay, HEK 293T cells, HLA-E*01:01; type: cell-based; design: expressed in transfected cells; details: transiently transfected HEK 293T cells; mAb 3D12
Description: as §2, §3

HLA-E*01:03 [6] = molecular target: T2, HLA-E*01:03; details: summary of both assays

| Sequence | Cell-Surface Stabilization Index E*01:01 (HLA-E*01:01 [1]) | Cell-Surface Stabilization Index E*01:03 ± SD (HLA-E*01:03 [2]) | other results |
| --- | --- | --- | --- |
| IVRMYSPTSILDIKQ | 0.03 | 0.518 ± 0.033 |  |
| PEIVIYQYM [PM9] |  |  | Mamu-E*02:04 single-chain trimer surface expression (MFI) relative to non-binding peptide (Mamu-E*02:04): increased the mean fluorescent intensity (MFI) relative to a non-binding peptide; IFN-γ production by CD8+ HC092 STCL cells (CD8+ HC092 STCL cells): 28.3%; PM9-specific HLA-E-restricted CD8+ T-cell responders [3]: one possible responder out of 32 patients; HLA-E*01:03 single-chain trimer MFI relative to VL9 MFI (HLA-E*01:03 [4]; highest increase of the three MHC-E molecules): approximately half of the VL9 MFI; HLA-E*01:03 single-chain trimer surface stabilization (HLA-E*01:03 [4]): increased the mean fluorescent intensity (MFI) relative to a non-binding peptide; HLA-E*01:01 single-chain trimer surface expression (MFI) relative to non-binding peptide (HLA-E*01:01 [5]): increased the mean fluorescent intensity (MFI) relative to a non-binding peptide; HLA-E binder classification across the SCT assay and the LCL721.221-HLA-E*01:03 assay (MFI over 4000) (HLA-E*01:03 [6]): both the SCT assay and over 4000 MFI in the LCL721.221-HLA-E*01:03 assay; Cell-Surface Stabilization Index E*01:03/PM9 (HLA-E*01:03 [2]; PM9 positive control of the experimental day, RMA-S cells with HLA-E*01:03): 0.658 and 0.733 and 0.617 and 0.620 |
| TEEKIKALTEICKEM [C182, tHIVconsvX 15-mer peptide […]] | 0.33 | 0.463 ± 0.085 |  |
| NEEAAEWDR [NR9] |  |  | HLA-E binder classification across the SCT assay and the LCL721.221-HLA-E*01:03 assay (MFI over 4000) (HLA-E*01:03 [6]): positive stabilization signal in at least one of the two employed assays |
| PQDLNTMLNTVGGHQ [C025, tHIVconsvX 15-mer peptide […]] | 0.32 | 0.431 ± 0.038 |  |
| QMAVFIHNFKRKGGI [C352, tHIVconsvX 15-mer peptide […]] | 0.26 | 0.641 ± 0.051 |  |
| YFSVPLDKDFRKYTA [C227, tHIVconsvX 15-mer peptide […]] | 0.21 | 0.618 ± 0.042 |  |
| YFSVPLDESFRKYTA [C226, tHIVconsvX 15-mer peptide […]] | −0.15 | 0.669 ± 0.010 |  |
| QMAVLIHNFKRRGGI [C353, tHIVconsvX 15-mer peptide […]] | 0.17 | 0.632 ± 0.065 |  |
| INEEAAEWDRVHPVH [C037, tHIVconsvX 15-mer peptide […]] | 0.30 | 0.419 ± 0.031 |  |
| VYYRDSRDPIWKGPA [C376, tHIVconsvX 15-mer peptide […]] | 0.22 | 0.366 ± 0.044 |  |
| INEEAAEWDRLHPVH [C038, tHIVconsvX 15-mer peptide […]] | 0.20 | 0.389 ± 0.039 |  |
| TVCVIWCIH [TH9, reference compound] |  |  | Mamu-E*02:04 single-chain trimer surface expression (MFI) relative to non-binding peptide (Mamu-E*02:04): non-binding; HLA-E*01:03 single-chain trimer surface stabilization (HLA-E*01:03 [4]): non-binding; HLA-E*01:01 single-chain trimer surface expression (MFI) relative to non-binding peptide (HLA-E*01:01 [5]): non-binding |
| PQDLNMMLNIVGGHQ [C026, tHIVconsvX 15-mer peptide […]] | 0.25 | 0.429 ± 0.037 |  |
| GHQAAMQMLKDTINE | 0.27 | 0.455 ± 0.033 |  |
| SALSEGATPQDLNMM [C022, tHIVconsvX 15-mer peptide […]] | 0.14 | 0.382 ± 0.027 |  |
| GHQAAMQMLKETINE [C032, tHIVconsvX 15-mer peptide […]] | 0.16 | 0.480 ± 0.057 |  |
| VYYRDSRDPLWKGPA [C377, tHIVconsvX 15-mer peptide […]] | 0.17 | 0.353 ± 0.039 |  |
| VMAPRTLVL [VL9, reference compound] |  |  | Cell-Surface Stabilization Index E*01:03/VL9 (HLA-E*01:03 [2]; VL9 (VMAPRTLVL) positive control of the experimental day, RMA-S cells with HLA-E*01:03): 2.572 and 2.369 and 2.600 and 2.281 |
| QMAVFIHNF [QF9] |  |  | HLA-E binder classification across the SCT assay and the LCL721.221-HLA-E*01:03 assay (MFI over 4000) (HLA-E*01:03 [6]): positive stabilization signal in at least one of the two employed assays |
